Source: patent US12655116B2, “Substituted isophthalic acid diamides” (Bayer Aktiengesellschaft, priority 2020, dated 2026)

Experiments:
[1] = test system: ECHCG; test: Pre-emergence herbicidal action against ECHCG; assay type: in vivo, Echinochloa crus-galli; conditions: 80 g/ha
Method in brief: (§1)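 Pre-emergence soil-surface spray of formulated compound (WP or EC; 600 to 800 l/ha; 0.2% wetting agent) over seeds sown in sandy loam. After 3 weeks under greenhouse conditions, damage is estimated visually in percent against untreated plants.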

[2] = test system: DIGSA; test: Pre-emergence herbicidal action against DIGSA; assay type: in vivo, Digitaria sanguinalis
Method in brief: as §1

[3] = test system: DIGSA; test: Post-emergence herbicidal action against DIGSA; assay type: in vivo, Digitaria sanguinalis; conditions: for Post-emergence action against DIGSA in %: 5 g/ha; for Post-emergence action against DIGSA: 20 g/ha
Method in brief: (§2)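 Greenhouse plants in sandy loam were sprayed at the one-leaf stage, 2 to 3 weeks after sowing, with WP or EC formulations as aqueous suspension or emulsion (600 to 800 l/ha water, 0.2% wetting agent). Visual damage was scored about 3 weeks later versus untreated controls, 0% = like control, 100% = dead.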

[4] = test system: SETVI; test: Pre-emergence herbicidal action against SETVI; assay type: in vivo, Setaria viridis
Method in brief: as §1

[5] = test system: AMARE; test: Pre-emergence herbicidal action against AMARE; assay type: in vivo, Amaranthus retroflexus
Method in brief: as §1

[6] = test system: VIOTR; test: Post-emergence herbicidal action against VIOTR; assay type: in vivo, Viola tricolor; conditions: 20 g/ha
Method in brief: as §2

[7] = test system: MATIN; test: Pre-emergence herbicidal action against MATIN; assay type: in vivo, Matricaria inodora
Method in brief: as §1

[8] = test system: ECHCG; test: Post-emergence herbicidal action against ECHCG; assay type: in vivo, Echinochloa crus-galli; conditions: dosage 20 g/ha
Method in brief: as §2

[9] = test system: VERPE; test: Pre-emergence herbicidal action against VERPE; assay type: in vivo, Veronica persica
Method in brief: as §1

[10] = test system: VIOTR; test: Pre-emergence herbicidal action against VIOTR; assay type: in vivo, Viola tricolor
Method in brief: as §1

[11] = test system: PHBPU; test: Pre-emergence herbicidal action against PHBPU; assay type: in vivo, Pharbitis purpurea; conditions: dosage 80 g/ha
Method in brief: as §1

[12] = test system: ABUTH; test: Pre-emergence herbicidal action against ABUTH; assay type: in vivo, Abutilon theophrasti; conditions: for Pre-emergence action against ABUTH (herbicidal activity): 80 g/ha, scored visually after 3 weeks vs untreated controls (100% = plants have died, 0% = like control plants); for Pre-emergence action against ABUTH (herbicidal activity in percent): dosage 20 g/ha, scored visually after 3 weeks vs untreated controls, 100% = plants have died, 0% = like control plants
Method in brief: as §1

[13] = test system: AMARE; test: Post-emergence herbicidal action against AMARE; assay type: in vivo, Amaranthus retroflexus; conditions: 20 g/ha, visual assessment about 3 weeks after treatment, 100% = plants have died, 0% = like control plants
Method in brief: as §2

[14] = test system: PHBPU; test: Post-emergence herbicidal action against PHBPU; assay type: in vivo, Pharbitis purpurea
Method in brief: as §2

[15] = test system: VERPE; test: Post-emergence herbicidal action against VERPE; assay type: in vivo, Veronica persica
Method in brief: as §2

[16] = test system: MATIN; test: Post-emergence herbicidal action against MATIN; assay type: in vivo, Matricaria inodora
Method in brief: as §2

[17] = test system: ALOMY; test: Pre-emergence herbicidal action against ALOMY; assay type: in vivo, Alopecurus myosuroides; conditions: 80 g/ha, pre-emergence, scored visually after 3 weeks vs untreated controls (100% = plants have died, 0% = like control plants)
Method in brief: as §1

[18] = test system: SETVI; test: Post-emergence herbicidal action against SETVI; assay type: in vivo, Setaria viridis; conditions: dosage 20 g/ha
Method in brief: as §2

[19] = test system: ABUTH; test: Post-emergence herbicidal action against ABUTH; assay type: in vivo, Abutilon theophrasti; conditions: visual assessment about 3 weeks after treatment vs untreated controls
Method in brief: as §2

[20] = 20 g/ha, scored visually after 3 weeks vs untreated controls, 100% = plants have died, 0% = like control plants
[21] = 80 g/ha, scored visually after 3 weeks vs untreated controls (100% = plants have died, 0% = like control plants)

| SMILES | Pre-emergence action against ECHCG in % [1] [%] | Pre-emergence action against DIGSA in % ([2]; dosage 20 g/ha) [%] | Pre-emergence action against DIGSA in % ([2]; dosage 80 g/ha) [%] | Post-emergence action against DIGSA in % [3] [%] | Post-emergence action against DIGSA [3] [%] | Pre-emergence action against SETVI in % ([4]; dosage 80 g/ha) [%] | Pre-emergence action against AMARE in % [5, 20] [%] | Pre-emergence action against AMARE in % [5, 21] [%] | Post-emergence action against VIOTR in % [6] [%] | Pre-emergence action against MATIN in % ([7]; dosage 20 g/ha) [%] | Pre-emergence action against MATIN in % ([7]; dosage 80 g/ha) [%] | Post-emergence action against ECHCG in % [8] [%] | Pre-emergence action against VERPE in % ([9]; dosage 80 g/ha) [%] | Pre-emergence action against VIOTR in % ([10]; dosage 20 g/ha) [%] | Pre-emergence action against VIOTR in % ([10]; dosage 80 g/ha) [%] | Pre-emergence action against PHBPU in % [11] [%] | Pre-emergence action against ABUTH (herbicidal activity) [12] [%] | Pre-emergence action against ABUTH (herbicidal activity in percent) [12] [%] | Post-emergence action at 20 g/ha against AMARE in % [13] [%] | Post-emergence action against PHBPU in % ([14]; dosage 20 g/ha) [%] | further results |
| --- | --- | --- | --- | --- | --- | --- | --- | --- | --- | --- | --- | --- | --- | --- | --- | --- | --- | --- | --- | --- | --- |
| CCn1nnnc1NC(=O)c1ccc(C(F)F)c(C(=O)NC(C)C2CC2)c1Br (centres unmarked) [Example 2-340] | 100 | 100 | 100 | 80 | 90 | 100 | 100 | 100 | 80 | 100 | 100 | 90 | 100 | 100 | 100 | 80 | 100 | 100 | 100 | 80 | Post-emergence action against VERPE in % ([15]; 20 g/ha): 90%; Post-emergence action against MATIN in % ([16]; dosage 20 g/ha): 80% |
| CCn1nnnc1NC(=O)c1ccc(C(F)(F)F)c(C(=O)NC)c1C1CC1 [Example 2-286] | 90 | 100 | 100 | 90 | 90 | 100 | 100 | 100 | 80 | 100 | 100 | 100 | 100 | 90 | 100 | 90 | 100 | 100 | 100 | 90 | Pre-emergence action against SETVI in % ([4]; dosage 20 g/ha): 80%; Pre-emergence action against ALOMY (herbicidal activity) [17]: 80%; Pre-emergence action against VERPE in % ([9]; dosage 20 g/ha): 80%; Post-emergence action against SETVI in % [18]: 80%; Post-emergence action against PHBPU in % ([14]; dosage 5 g/ha): 90%; Post-emergence action against VERPE in % ([15]; 5 g/ha): 80%; Post-emergence action against VERPE in % ([15]; 20 g/ha): 80%; Post-emergence action against ABUTH in % ([19]; dosage 5 g/ha): 90%; Post-emergence action against ABUTH in % ([19]; dosage 20 g/ha): 90%; Post-emergence action against MATIN in % ([16]; dosage 5 g/ha): 90%; Post-emergence action against MATIN in % ([16]; dosage 20 g/ha): 90% |
